Measured values taken from EP0412158A1, “ONCOSTATIC DRUG” (priority 1987, dated 1988).

What was measured:
MM-46 breast cancer [1] = test: MM-46 breast cancer, evaluation by size of tumor (Examples 21 to 24); type: in vivo, female C3H/He mice; settings: 5 mg/kg
[2] = as above; type: in vivo, female C3H/He mice; settings: mouse, in vivo, ip; read-out: largest allowable dose
methyl cholanthrene A [3] = test: Methyl cholanthrene A tumor, evaluation by extension of period of survival (Examples 7 to 11); type: in vivo, female BALB/C mice; settings: 5 mg/kg; for Average number of days of survival / Number of toxically killed mice/total number of mice / T/control: ip×9; for Change in body weight: ip×9, D1~D9; for T/control: days of survival
Method: The aforementioned compounds, A to D, were severally dissolved in distilled water to obtain aqueous solutions containing the compounds in a fixed concentration of 10 mg/ml. To the female BALB/C mice (five weeks old) to which methyl cholanthrene A had been transplanted in a ratio of 1.0 x 10^5 cells per mouse, […] to determine the mices' periods of survival. For comparison, mice to which no antineoplastic drug was administered and mice to which aminonitroso urea was administered were similarly tested.

[4] = Antineoplastic activity against transplanted methyl cholanthrene A tumor, evaluation by size of tumor (Examples 1 to 6); type: in vivo, female BALB/C mice; settings: mouse, in vivo, ip
Method: (§1) By dissolving alkylammonium salt of polymolybdic acid [NH3C3H7(iso)]s [Mo7O24] • 3H2O (Compound A) and other compounds (Compounds B to D) severally in distilled water, aqueous solutions containing the compounds in a fixed concentration of 10 mg/ml were obtained. These aqueous solutions were administered to female BALB/C mice (five weeks old) to which methyl cholanthrene A tumor had been transplanted to test the compounds for antineoplastic activity. To be specific, methyl cholanthrene A was transplanted to the mice in a ratio of 1.0 x 10^5 cells per mouse and the aqueous solutions were continuously administered to the mice by intraperitoneal injection ([…]) for nine days. On elapse of 14 days following the start of the administration, the tumors in the mice were measured. For comparison, mice to which no antineoplastic .drug was administered and mice to which aminonitroso urea was administered were tested by following the procedure described above.

[5] = test system: methyl cholanthrene A tumor; test: as above; type: in vivo, female BALB/C mice; settings: 5 mg/kg, ip×9; for Change in body weight: body weight 13 days after transplantation; for T/control: tumor weight
Method: as §1

methyl cholanthrene A [6] = test: Methyl cholanthrene A tumor, evaluation by elongation of period of survival (Examples 17 to 20); type: in vivo, female BALB/C mice; settings: 5 mg/kg ×9
MM-46 breast cancer [7] = type: in vivo, female C3H/He mice; settings: 5 mg/kg, ip × 9
[8] = test system: methyl cholanthrene A tumor; test: Methyl cholanthrene A tumor, evaluation by weight of tumor (Examples 13 to 16); type: in vivo, female BALB/C mice; settings: 5 mg/kg
methyl cholanthrene A [9] = test: Methyl cholanthrene A tumor, evaluation by elongation of period of survival (Examples 31, 34 and 35); type: in vivo, female BALB/C mice
Method: The active compounds, M to 0, mentioned above were severally dissolved in distilled water to obtain aqueous solutions containing the compounds in a fixed concentration of 10 mg/ml. To be specific, to female BALB/C mice (five weeks old) to which methyl cholanthrene A had been transplanted in a ratio of 1.0 x 10^5 cells per mouse, […] for 9 consecutive days to determine the mice's periods of survival. For comparison, mice to which no aqueous solution was administered and mice to which aminonitrosourea was administered were similarly tested.

[10] = Methyl cholanthrene A tumor, evaluation by weight of tumor (Examples 13 to 16); type: in vivo, female BALB/C mice; settings: mouse, in vivo, ip; read-out: largest allowable dose
Method: Compound E, an alkali metal salt of polymolybdic acid (Example 13), and other compounds (Compounds F to H) mentioned above were severally dissolved in distilled water to obtain aqueous solutions containing the compounds in a fixed concentration of 10 mg/ml. These aqueous solutions were administered to female BALB/C mice (five weeks old) to which methyl cholanthrene A tumor had been transplanted to test the compounds for antineoplastic activity. To be morespecific, the methyl cholanthrene A was transplanted to the mice in a ratio of 1.0 x 10^5 cells per mouse and the aqueous solution was continuously administered (at a dose of 100 mg/kg of body weight) for nine days by intraperitoneal injection. On elapse of 14 days after the stop of the administration, the tumors in the mice were weighed. For comparison, mice to which the aqeuous solution was not administered and the mice to which aminonitrosourea was administered were similarly tested.

[11] = Methyl cholanthrene A tumor, evaluation by size of tumor (Examples 31 to 33); type: in vivo, female BALB/C mice; settings: mouse, in vivo, ip; read-out: largest allowable dose
Method: (§2) A heteropoly acid salt, Na5[IM06O24]•34H2O (Compound M), and other compounds (Compounds N and O ) were severally dissolved in distilled water to obtain aqueous solutions containing the salts in a fixed concentration of 10 mg/ml. To female BALB/C mice (five weeks old) to which methyl cholanthrene A tumor had been transplanted, the aqueous solutions were administered to test the compounds for antineoplastic activity. To be specific, the methyl cholanthrene A was transplanted to the mice at a ratio of 1.0 x 10^5 cells per mouse and the aqueous solutions were administered ([…]) for 9 consecutive days by intraperitoneal injection. On elapse of 14 and 21 days after the stop of the administration, the sizes of tumors in the mice were measured. For comparison, mice to which no aqueous solution was administered and mice to which aminonitrosourea was administered were similarly tested.

[12] = test system: methyl cholanthrene A tumor; test: as above; type: in vivo, female BALB/C mice
Method: as §2

## Cc1ncc(CNC(=O)N(CCCl)N=O)c(N)n1 [reference compound]
MM-46 breast cancer [1]; ip × 9
  Average weight of tumor: 1364.3 ± 200.0 mg
  Number of tumorless mice /total number of mice: 0/8
MM-46 breast cancer [1]; ip×9, tumor weight
  T/control: 0.473
[2]
  MTD: 5 mg/kg
Methyl cholanthrene A [3]; No. 1
  Average number of days of survival: 35.8 ± 1.4 days
  Number of toxically killed mice/total number of mice: 0/8
  Change in body weight: +1.58 g
  T/control: 138.0
Methyl cholanthrene A [3]; No. 2
  Average number of days of survival: 28.0±3.1(9) days
  Number of toxically killed mice/total number of mice: 0/8
  Change in body weight: +1.58 g
  T/control: 124.5
[4]
  MTD: 5 mg/kg
[5]; No. 1
  Average weight of tumor: 1151.1 ± 162.7 mg
  Number of tumorless mice /total number of mice: 0/8
  Change in body weight: +1,58 (D1~D9) g
  T/control: 0.430
[5]; No. 3
  Average weight of tumor: 1151.1 ± 162.7 mg
  Number of tumorless mice /total number of mice: 0/8
  Change in body weight: +1,58 (D1~D9) g
  T/control: 0.430
Methyl cholanthrene A [6]
  Average number of days of survival: 28.0±3.1(9) days
  Number of toxically killed mice/total number of mice: 0/8
  Ratio of prolonging life: 24.4%
MM-46 breast cancer [7]
  Average number of days of survival: 29.1±2.1(8) days
  Average weight of tumor after 14 days: 1364.3 ± 200.0 mg
  Ratio of elongation of life (5): 76.4
[8]; ip × 9
  Average weight of tumor: 1151.1 ± 162.7 mg
  Number of tumorless mice /total number of mice: 0/8
[8]; ip×9, tumor weight
  T/control: 0.447
[8]; ip×9 D1-D9, body weight 13 days after tumor transplantation
  Change in body weight: +1,58 g
Methyl cholanthrene A [9]; 2.5 mg/kg, ip × 9 (D1~D9)
  Average number of days of survival ±SE: 31.13±1.14(8) days
  ILS: 18%
Methyl cholanthrene A [9]; 7.5 mg/kg, ip × 9
  Average number of days of survival ±SE: 36.67±1.07(9) days
  ILS: 47.3%
Methyl cholanthrene A [9]; 7.5 mg/kg, ip × 9, observed 60 days after transplantation
  Number of mice of no tumor/total number of mice: 0/9
[10]
  MTD: 5 mg/kg
[11]
  MTD: 7.5 mg/kg
[12]; 2.5 mg/kg, ip × 9 (D1~D9)
  Average weight of tumor after elapse of 14 days ± SE: 347.9 ± 63.8 mg
[12]; 2.5 mg/kg, ip × 9 (D1~D9), tumor weight after 14 days
  T/C: 0.405
[12]; 7.5 mg/kg, ip × 9, tumor weight after 14 days
  T/C: 0.367
[12]; 7.5 mg/kg, ip × 9, tumor weight after 21 days
  T/C: 0.444
